Experiments:
Assay in all cases: GRmax, 72 h; higher = less effect;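 further: breast cell lines in 384-well plates, nine doses across a 10^4 range, Dye Drop imaging of viable cells vs DMSO and time-zero plates, GR 0 means no net growth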
[1] = test system: MDAMB468
[2] = test system: PDXHCI002
[3] = test system: CAMA1
[4] = test system: T47D
[5] = test system: SUM1315
[6] = test system: CAL51
[7] = test system: UACC812
[8] = test system: AU565
[9] = test system: ZR7530
[10] = test system: HCC1395
[11] = test system: MDAMB436

Structure (SMILES) | GRmax, 72 h [1] [GR] | GRmax, 72 h [2] [GR] | GRmax, 72 h [3] [GR] | GRmax, 72 h [4] [GR] | GRmax, 72 h [5] [GR] | GRmax, 72 h [6] [GR] | GRmax, 72 h [7] [GR] | GRmax, 72 h [8] [GR] | GRmax, 72 h [9] [GR] | GRmax, 72 h [10] [GR] | GRmax, 72 h [11] [GR] | GRmax, 72 h ([1]; main component drawn) [GR] | GRmax, 72 h ([2]; main component drawn) [GR] | GRmax, 72 h ([3]; main component drawn) [GR] | GRmax, 72 h ([4]; main component drawn) [GR] | GRmax, 72 h ([5]; main component drawn) [GR] | GRmax, 72 h ([6]; main component drawn) [GR] | GRmax, 72 h ([10]; main component drawn) [GR] | GRmax, 72 h ([11]; main component drawn) [GR]
Cc1nc(NC(=O)N2CCC[C@H]2C(N)=O)sc1-c1ccnc(C(C)(C)C(F)(F)F)c1 [Alpelisib/BYL719] (max 10 µM) | 0.714 | 0.63 | 0.979 | -0.0332 | 0.383 | 0.344 | -0.0521 | -0.472 | -0.0068 | 0.637 | 0.725 |  |  |  |  |  |  |  | 
CN(C)C/C=C/C(=O)Nc1ccc(O[C@@H]2CCC[C@@H](Nc3ncc(Cl)c(-c4c[nH]c5ccccc45)n3)C2)cc1 [BSJ-01-175] (max 10 µM) | -0.617 | -0.297 | -0.712 | -0.719 | -0.864 | -0.368 | -0.92 | -0.777 | -0.943 | -0.862 | -0.598 |  |  |  |  |  |  |  | 
CC(=O)c1c(C)c2cnc(Nc3ccc(N4CCN(CCOCCOCCOCCNC(=O)COc5cccc6c5C(=O)N(C5CCC(=O)NC5=O)C6=O)CC4)cn3)nc2n(C2CCCC2)c1=O (stereo not drawn) [BSJ-03-123] (max 10 µM) | -0.0298 | -0.0835 | 0.0546 | 0.0948 | 0.236 | 0.146 | -0.312 | -0.386 | -0.258 | -0.171 | -0.0126 |  |  |  |  |  |  |  | 
CC(C)Nc1cc(-c2c[nH]c(C(=O)N[C@H](CO)c3cccc(Cl)c3)c2)c(Cl)cn1 [BVD523] (max 10 µM) | 0.402 | 0.286 | 0.156 | 0.217 | 0.207 | 0.759 | 0.176 | 0.521 | 0.562 | 0.253 | 0.649 |  |  |  |  |  |  |  | 
Cc1c(N)nc([C@H](CC(N)=O)NC[C@H](N)C(N)=O)nc1C(=O)N[C@H](C(=O)N[C@H](C)[C@@H](O)[C@H](C)C(=O)N[C@H](C(=O)NCCc1nc(-c2nc(C(=O)NCCC[S+](C)C)cs2)cs1)[C@@H](C)O)[C@@H](OC1OC(CO)C(O)C(O)C1OC1OC(CO)C(O)C(OC(N)=O)C1O)c1cnc[nH]1 (stereo partly drawn) [Bleomycin] (max 10 µM) |  |  |  |  |  |  |  |  |  |  |  | -0.21 | -0.12 | -0.0365 | -0.084 | 0.149 | -0.134 | -0.402 | -0.12
Nc1cc(C(F)(F)F)c(-c2cc(N3CCOCC3)nc(N3CCOCC3)n2)cn1 [Buparlisib/NVP-BKM120] (max 10 µM) | -0.516 | -0.48 | -0.422 | -0.418 | -0.369 | -0.388 | -0.822 | -0.555 | -0.408 | -0.506 | -0.287 |  |  |  |  |  |  |  | 
COc1cc2nccc(Oc3ccc(NC(=O)C4(C(=O)Nc5ccc(F)cc5)CC4)cc3)c2cc1OC [Cabozantinib] (max 10 µM) | 0.423 | 0.234 | 0.244 | 0.313 | 0.11 | 0.306 | 0.298 | 0.312 | 0.449 | 0.114 | 0.0862 |  |  |  |  |  |  |  | 
COc1cc2c(Oc3ccc4[nH]c(C)cc4c3F)ncnc2cc1OCCCN1CCCC1 [Cediranib/AZD2171] (max 10 µM) | -0.708 | -0.432 | -0.292 | -0.64 | -0.228 | -0.103 | -0.575 | 0.887 | -0.145 | -0.482 | -0.382 |  |  |  |  |  |  |  | 
Cc1cc(Nc2ncc(Cl)c(Nc3ccccc3S(=O)(=O)C(C)C)n2)c(OC(C)C)cc1C1CCNCC1 [Ceritinib/LDK378] (max 10 µM) | -0.742 | -0.634 | -0.699 | -0.855 | -0.765 | -0.476 | -0.983 | 0.498 | 0.416 | -0.627 | -0.697 |  |  |  |  |  |  |  | 
N.N.[Cl][Pt][Cl] [Cisplatin] (max 10 µM) | -0.287 | -0.0985 | -0.0042 | 0.102 | 0.203 | -0.0329 |  |  |  | -0.222 | -0.0204 |  |  |  |  |  |  |  | 
Cc1nc(Nc2ncc(C(=O)Nc3c(C)cccc3Cl)s2)cc(N2CCN(CCO)CC2)n1 [Dasatinib] (max 10 µM) | 0.339 | 0.0322 | 0.679 | 0.496 | -0.237 | 0.0983 | -0.714 | 0.26 | -0.0607 | -0.337 | 0.653 |  |  |  |  |  |  |  | 
COc1cccc2c1C(=O)c1c(O)c3c(c(O)c1C2=O)C[C@@](O)(C(=O)CO)C[C@@H]3O[C@H]1C[C@H](N)[C@H](O)[C@H](C)O1 [Doxorubicin] (max 3.162 µM) | -0.339 | -0.654 | -0.652 | -0.361 | -0.0635 | -0.48 | -0.919 | -0.452 | -0.274 | -0.417 | -0.129 |  |  |  |  |  |  |  | 
CO[C@H]1C[C@@H]2CC[C@@H](C)[C@@](O)(O2)C(=O)C(=O)N2CCCC[C@H]2C(=O)O[C@H]([C@H](C)C[C@@H]2CC[C@@H](OCCO)[C@H](OC)C2)CC(=O)[C@H](C)/C=C(\C)[C@@H](O)[C@@H](OC)C(=O)[C@H](C)C[C@H](C)/C=C/C=C/C=C/1C [Everolimus] (max 10 µM) | 0.527 | 0.987 | 0.164 | 0.297 | 0.402 | 0.548 | -0.0713 | 0.4 | 0.169 | 0.404 | 0.615 |  |  |  |  |  |  |  | 
CCC(=O)Nc1ccc(C(=O)Nc2ccc(Nc3ncc4c(n3)N(C)c3ccc(C)cc3C(=O)N4C)cc2)cc1 [FMF-03-145-1] | -0.46 | -0.102 | 0.0253 | -0.0373 | -0.274 | 0.0325 | -0.198 | -0.153 | -0.0468 | -0.151 | -0.189 |  |  |  |  |  |  |  | 
COc1cc(N2CCN(C)CC2)ccc1Nc1ncc2c(n1)N(C)c1ccccc1C(=O)N2CC(F)(F)F [FMF-03-146-1] | 0.706 | 1.02 | 0.82 | 0.683 | 0.824 | 0.922 | 0.918 | 0.63 | 0.937 | 0.64 | 0.89 |  |  |  |  |  |  |  | 
CN1CC[C@H](c2c(O)cc(O)c3c(=O)cc(-c4ccccc4Cl)oc23)[C@H](O)C1 [Flavopiridol] (max 1 µM) | -0.351 | -0.143 | -0.13 | -0.134 | -0.887 | -0.0935 | -0.813 | -0.69 | -0.662 | -0.644 | -0.0264 |  |  |  |  |  |  |  | 
CC[C@@]1(O)C(=O)OCc2c1cc1n(c2=O)Cc2cc3c(CN(C)C)c(O)ccc3nc2-1 [Topotecan] (max 10 µM) | -0.658 | -0.701 | -0.423 | -0.197 | -0.332 | -0.53 |  |  |  | -0.584 | -0.14 |  |  |  |  |  |  |  | 
